Assay results reported in the supplement of paper PMC5908809.

Tests used:
[1] = tested on: DERL-7 (IL-2 2.5 ng/mL); experiment: percent inhibition of viability; higher = more inhibition; settings: 72 h
[2] = tested on: normal primary NK cells, pool 2 (3 donors) (IL-2 2.5 ng/mL); experiment: as above; settings: 72 h
[3] = tested on: normal primary NK cells, pool 1 (3 donors) (IL-2 2.5 ng/mL); experiment: as above; settings: 72 h
[4] = tested on: KAI3 (IL-2 2.5 ng/mL); experiment: as above; settings: 72 h
[5] = tested on: NK-YS (IL-2 2.5 ng/mL); experiment: as above; settings: 72 h
[6] = tested on: IMC-1 (IL-2 20 ng/mL); experiment: as above; settings: 72 h
[7] = tested on: SNK-6 (IL-2 2.5 ng/mL); experiment: as above; settings: 72 h
[8] = tested on: normal primary NK cells, pool 1 (3 donors), resting (IL-2 0 ng/mL); experiment: as above; settings: 72 h
[9] = tested on: NK-92 (IL-2 2.5 ng/mL); experiment: as above; settings: 72 h
[10] = tested on: normal primary NK cells, pool 3 (3 donors) (IL-2 2.5 ng/mL); experiment: as above; settings: 72 h
[11] = tested on: KHYG-1 (IL-2 2.5 ng/mL); experiment: as above; settings: 72 h
[12] = tested on: NKL (IL-2 2.5 ng/mL); experiment: as above; settings: 72 h
[13] = tested on: YT (IL-2 2.5 ng/mL); experiment: as above; settings: 72 h
[14] = tested on: normal NK cells expanded with K562-aAPC; experiment: drug sensitivity score (DSS) (DSS units); higher = more sensitive; extreme values may be limits of the assay; settings: 72 h; IL-2 2.5 ng/mL
Procedure: (§1)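 Drug sensitivity and resistance testing on K562-aAPC-expanded normal NK cells: 5 concentrations (10-fold steps over a 10,000-fold range), 72 h at 37 °C, viability by CellTiter-Glo normalised to DMSO and benzethonium chloride controls; DSS from the fitted curve.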

[15] = tested on: normal NK cells expanded with K562-aAPC; experiment: percent inhibition of viability; higher = more inhibition; settings: 72 h, IL-2 2.5 ng/mL
Procedure: as §1

[16] = tested on: DERL-7 (IL-2 2.5 ng/mL); experiment: drug sensitivity score (DSS) (DSS units); higher = more sensitive; extreme values may be limits of the assay; settings: 72 h
[17] = tested on: normal primary NK cells, pool 2 (3 donors) (IL-2 2.5 ng/mL); experiment: as above; settings: 72 h
[18] = tested on: normal primary NK cells, pool 1 (3 donors) (IL-2 2.5 ng/mL); experiment: as above; settings: 72 h
[19] = tested on: KAI3 (IL-2 2.5 ng/mL); experiment: as above; settings: 72 h
[20] = tested on: NK-YS (IL-2 2.5 ng/mL); experiment: as above; settings: 72 h
[21] = tested on: IMC-1 (IL-2 20 ng/mL); experiment: as above; settings: 72 h
[22] = tested on: SNK-6 (IL-2 2.5 ng/mL); experiment: as above; settings: 72 h
[23] = tested on: normal primary NK cells, pool 1 (3 donors), resting (IL-2 0 ng/mL); experiment: as above; settings: 72 h
[24] = tested on: NK-92 (IL-2 2.5 ng/mL); experiment: as above; settings: 72 h
[25] = tested on: normal primary NK cells, pool 3 (3 donors) (IL-2 2.5 ng/mL); experiment: as above; settings: 72 h
[26] = tested on: KHYG-1 (IL-2 2.5 ng/mL); experiment: as above; settings: 72 h
[27] = tested on: NKL (IL-2 2.5 ng/mL); experiment: as above; settings: 72 h
[28] = tested on: YT (IL-2 2.5 ng/mL); experiment: as above; settings: 72 h

Nc1cccc2c1C(=O)N(C1CCC(=O)NC1=O)C2=O (stereo not given) [Pomalidomide] (max concentration tested 10000 nM)
percent inhibition of viability [%]
Settings | 1 nM | 10 nM | 100 nM | 1000 nM | 10000 nM
[1] | -0.13 | -4.4 | 15.2 | -7.7 | -4.17
[2] | -13.3 | 1.17 | -2.18 | -2.49 | -1.88
[3] | -3.59 | -0.54 | -10.1 | 9.65 | 3.39
[4] | -0.58 | -8.97 | -7.97 | -13.6 | -12.9
[5] | -3.69 | -2.34 | -5.2 | -2.26 | -0.5
[6] | -4 | -1.04 | -2.22 | -4.13 | -2.92
[7] | -0.98 | 3.29 | 13.5 | -10.9 | 31.7
[8] | -1.02 | -19.1 | -32.7 | -20.7 | -23.7
[9] | -1.19 | -10.2 | -3.35 | -12.4 | -16.6
[10] | -16 | 7.94 | -8.83 | -7.7 | -5.51
[11] | -4.54 | -1.13 | -5.7 | -4.26 | -0.94
[12] | -6.14 | -8.75 | 7.72 | 18.5 | 21.2
[13] | -5.53 | -2.96 | -0.67 | -5.5 | -0.71
[15] | -10.8 | -9.91 | -9.37 | -11.8 | -8.13

Settings | drug sensitivity score
[14] | 0
[16] | 0
[17] | 0
[18] | 0
[19] | 0
[20] | 0
[21] | 0
[22] | 0.99
[23] | 0
[24] | 0
[25] | 0
[26] | 0
[27] | 3.93
[28] | 0

Cc1cc(OCc2nnc(SC3CCCC3)n2-c2cccnc2)ccc1-c1ccc(S(C)(=O)=O)cc1 [NMS-873] (max concentration tested 10000 nM)
percent inhibition of viability [%]
Settings | 1 nM | 10 nM | 100 nM | 1000 nM | 10000 nM
[1] | 8.88 | 2.79 | 15.8 | 34.8 | 101
[2] | -5.68 | 4.07 | 30.6 | 39.7 | 97.8
[3] | 6.16 | -1.92 | 22 | 43.5 | 98.7
[4] | 3.12 | 7.92 | 11.3 | 35.3 | 105
[5] | 6.01 | 11.3 | 46.8 | 84.8 | 107
[6] | 2.03 | 32.2 | 95.6 | 39.2 | 101
[7] | 0.98 | 31.4 | 15.3 | 33.6 | 101
[8] | -8.11 | -16.4 | 24.5 | 58.2 | 91.2
[9] | -7.23 | -12.4 | 12.5 | 70.3 | 107
[10] | -2.38 | 0.99 | 24.8 | 27 | 99.8
[11] | 3.36 | 6 | 38 | 65.7 | 107
[12] | 11.2 | 14.7 | 26 | 52 | 106
[13] | -2.33 | 20.6 | 83.1 | 56.4 | 106
[15] | 0.72 | 5.79 | 5.95 | 24.3 | 101

Settings | drug sensitivity score
[14] | 9.28
[16] | 9.55
[17] | 12.2
[18] | 11.4
[19] | 10.4
[20] | 22.1
[21] | 26.4
[22] | 9.51
[23] | 13.7
[24] | 14.8
[25] | 8.69
[26] | 17.9
[27] | 14.6
[28] | 26.1

O=C(O)c1ccc2c(c1)nc(Nc1cccc(Cl)c1)c1ccncc12 [Silmitasertib] (max concentration tested 10000 nM)
percent inhibition of viability [%]
Settings | 1 nM | 10 nM | 100 nM | 1000 nM | 10000 nM
[1] | -3.79 | 0.67 | -2.32 | 10.4 | 96
[2] | -8.83 | -6.36 | 2.09 | 8.72 | 76.5
[3] | -9.41 | -7.07 | -7.39 | 18.1 | 85.6
[4] | 4.28 | 8.25 | 8.8 | 16.1 | 84.8
[5] | 5.01 | 1.7 | 1.66 | 10.8 | 88.7
[6] | 7.09 | 6.12 | 5.81 | -2.16 | 48.4
[7] | 4.5 | 3.13 | -1.8 | -10.8 | 85.2
[8] | -25.1 | -31.8 | -43.9 | -9.05 | 63.9
[9] | 6.03 | 10.9 | -12.3 | -16.9 | 90.2
[10] | -4.66 | -2.89 | -4.84 | 9.91 | 70.3
[11] | 2.32 | 3.89 | 1.97 | 14.4 | 98.1
[12] | 11.5 | 10.7 | 2.41 | 13.4 | 76.3
[13] | 5.21 | 5.15 | 4.79 | 17.7 | 79.9
[15] | 6.72 | 1.13 | 2.51 | 24.6 | 85.7

Settings | drug sensitivity score
[14] | 8.41
[16] | 7.04
[17] | 5.68
[18] | 7.64
[19] | 7.33
[20] | 6.72
[21] | 2.35
[22] | 4.04
[23] | 2.91
[24] | 4.09
[25] | 5.54
[26] | 7.83
[27] | 6.45
[28] | 7.24

CNc1nc(-c2ccc3c(N)n[nH]c3c2)cc(N2C[C@@H](C(=O)NC3CCCCC3)CC[C@H]2C)n1 (max concentration tested 10000 nM)
percent inhibition of viability [%]
Settings | 1 nM | 10 nM | 100 nM | 1000 nM | 10000 nM
[1] | -6.71 | 4.6 | 17.5 | 62.3 | 73.1
[2] | -9.37 | -17 | -3.8 | 12.4 | 20.9
[3] | -8.1 | -7.19 | -3.29 | 25.5 | 14.9
[4] | 5.2 | 2.8 | 14.8 | 12.4 | 22.3
[5] | -0.39 | 1.82 | 1.37 | 11.8 | 12.3
[6] | -3.83 | -6.62 | -4.53 | -20.3 | -19.2
[7] | -15.1 | -5.82 | -4.32 | -18.6 | -16.6
[8] | -13.3 | -12.7 | -3.91 | 21.5 | 9.91
[9] | -8.7 | -9.38 | -10.8 | 12.7 | 15.9
[10] | -9.17 | -11.9 | -6.95 | 18.4 | 14.4
[11] | 2.18 | -0.82 | 1.06 | 6.54 | 6.11
[12] | -8.02 | -17.1 | -8.23 | 7.46 | 19
[13] | 0.91 | -0.65 | -0.96 | -0.24 | -1.61
[15] | -0.16 | 0.82 | 7.33 | 29 | 34.4

Settings | drug sensitivity score
[14] | 5.66
[16] | 13.6
[17] | 1.91
[18] | 3.79
[19] | 2.49
[20] | 0.64
[21] | 0
[22] | 0
[23] | 2.84
[24] | 1.22
[25] | 2.05
[26] | 0
[27] | 1.31
[28] | 0

CCc1cc(Nc2nccc(-c3c(-c4ccc(OC)c(C(=O)Nc5c(F)cccc5F)c4)nc4ccccn34)n2)c(OC)cc1N1CCC(N2CCN(S(C)(=O)=O)CC2)CC1 (max concentration tested 10000 nM)
percent inhibition of viability [%]
Settings | 1 nM | 10 nM | 100 nM | 1000 nM | 10000 nM
[1] | -3.29 | 4.96 | -4.2 | 9.43 | 2.99
[2] | -9.34 | 1.62 | -10.3 | -0.25 | -11.9
[3] | -5.95 | -3.54 | 3.36 | -0.74 | -0.37
[4] | 12.8 | 4.45 | 3.16 | -0.26 | -1.06
[5] | -1.69 | -4.53 | 2.55 | 3.02 | 7.23
[6] | -4.74 | -7.3 | -8.28 | -4.78 | -4.76
[7] | -2.73 | -8.81 | -9.86 | -16 | -27.5
[8] | -6.68 | -7.72 | 5.14 | 4.15 | 11.5
[9] | -8.65 | -15.5 | 0.66 | 9.19 | 19.7
[10] | 1.45 | 1.94 | -1.25 | -1.57 | -1.55
[11] | -1.04 | -3.94 | -1.22 | -2.02 | -0.15
[12] | -12.8 | -7.57 | -8.59 | -4.55 | -4.74
[13] | 2.55 | -0.94 | 2.88 | -1.24 | 0.54
[15] | -0.94 | -0.53 | -2.18 | 1.87 | 0.97

Settings | drug sensitivity score
[14] | 0
[16] | 0
[17] | 0
[18] | 0
[19] | 0
[20] | 0
[21] | 0
[22] | 0
[23] | 0
[24] | 1.41
[25] | 0
[26] | 0
[27] | 0
[28] | 0
